Measurements taken from the NIST ThermoML archive (doi:10.1021/acs.jced.9b00396).

Conditions: Liquid; for speed of sound: Frequency=3 MHz, Single path-length method; for mass density: Vibrating tube method

CC(=O)OCCC(C)C [3-methylbutyl ethanoate]
Conditions	mass density, 293.15 K [kg/m3]	mass density, 298.15 K [kg/m3]	mass density, 313.15 K [kg/m3]	mass density, 333.15 K [kg/m3]	mass density, 353.15 K [kg/m3]	mass density, 373.15 K [kg/m3]	speed of sound, 293.15 K [m/s]	speed of sound, 298.15 K [m/s]	speed of sound, 313.15 K [m/s]	speed of sound, 333.15 K [m/s]
100 kPa	872.9	868	853.3	833.3	–	–	1213	1193	1132	1045
500 kPa	874	869	854	834	814	793	–	–	–	–
1000 kPa	874	869	854	834	814	794	–	–	–	–
2500 kPa	875	870	856	836	816	796	–	–	–	–
5000 kPa	877	873	858	839	819	800	–	–	–	–
7500 kPa	879	875	861	842	823	–	–	–	–	–
10000 kPa	881	877	863	844	825	–	–	–	–	–
12500 kPa	883	879	865	847	828	–	–	–	–	–
15000 kPa	885	881	867	849	831	–	–	–	–	–
17500 kPa	887	883	869	851	834	–	–	–	–	–
20000 kPa	889	885	871	854	836	–	–	–	–	–
22500 kPa	891	886	873	856	839	–	–	–	–	–
25000 kPa	893	888	875	858	841	–	–	–	–	–
27500 kPa	895	890	877	860	843	–	–	–	–	–
30000 kPa	896	892	879	862	846	–	–	–	–	–
32500 kPa	898	894	881	864	848	–	–	–	–	–
35000 kPa	899	895	883	866	850	–	–	–	–	–
37500 kPa	901	897	885	868	852	–	–	–	–	–
